# Columns and labels:
# [1] = tested on: Uveal melanoma cell lines, 92-1 or MP41; experiment: Comparison with clinical PKC and MEK inhibitors in uveal melanoma cell lines (Cell-titer glo, 3 days); assay type: cell-based; conditions: FIG. 2, vs LXS196 and Selumetinib
# [2] = tested on: uveal melanoma and hematologic cancer cell lines; conditions: FIG. 1; 0 to 10 micromolar; uveal melanoma and hematologic cancer cell lines vs other tested cell lines
# BRM = BRM (Homo sapiens, UniProt P51531); experiment: ATPase catalytic activity of BRM (ADP-Glo in vitro biochemical assay)
# BRG-1 = BRG-1 (Homo sapiens, UniProt P51532); experiment: ATPase catalytic activity of BRG-1 (ADP-Glo in vitro biochemical assay)
# Sequence of BRG-1 (P51532 whole entry): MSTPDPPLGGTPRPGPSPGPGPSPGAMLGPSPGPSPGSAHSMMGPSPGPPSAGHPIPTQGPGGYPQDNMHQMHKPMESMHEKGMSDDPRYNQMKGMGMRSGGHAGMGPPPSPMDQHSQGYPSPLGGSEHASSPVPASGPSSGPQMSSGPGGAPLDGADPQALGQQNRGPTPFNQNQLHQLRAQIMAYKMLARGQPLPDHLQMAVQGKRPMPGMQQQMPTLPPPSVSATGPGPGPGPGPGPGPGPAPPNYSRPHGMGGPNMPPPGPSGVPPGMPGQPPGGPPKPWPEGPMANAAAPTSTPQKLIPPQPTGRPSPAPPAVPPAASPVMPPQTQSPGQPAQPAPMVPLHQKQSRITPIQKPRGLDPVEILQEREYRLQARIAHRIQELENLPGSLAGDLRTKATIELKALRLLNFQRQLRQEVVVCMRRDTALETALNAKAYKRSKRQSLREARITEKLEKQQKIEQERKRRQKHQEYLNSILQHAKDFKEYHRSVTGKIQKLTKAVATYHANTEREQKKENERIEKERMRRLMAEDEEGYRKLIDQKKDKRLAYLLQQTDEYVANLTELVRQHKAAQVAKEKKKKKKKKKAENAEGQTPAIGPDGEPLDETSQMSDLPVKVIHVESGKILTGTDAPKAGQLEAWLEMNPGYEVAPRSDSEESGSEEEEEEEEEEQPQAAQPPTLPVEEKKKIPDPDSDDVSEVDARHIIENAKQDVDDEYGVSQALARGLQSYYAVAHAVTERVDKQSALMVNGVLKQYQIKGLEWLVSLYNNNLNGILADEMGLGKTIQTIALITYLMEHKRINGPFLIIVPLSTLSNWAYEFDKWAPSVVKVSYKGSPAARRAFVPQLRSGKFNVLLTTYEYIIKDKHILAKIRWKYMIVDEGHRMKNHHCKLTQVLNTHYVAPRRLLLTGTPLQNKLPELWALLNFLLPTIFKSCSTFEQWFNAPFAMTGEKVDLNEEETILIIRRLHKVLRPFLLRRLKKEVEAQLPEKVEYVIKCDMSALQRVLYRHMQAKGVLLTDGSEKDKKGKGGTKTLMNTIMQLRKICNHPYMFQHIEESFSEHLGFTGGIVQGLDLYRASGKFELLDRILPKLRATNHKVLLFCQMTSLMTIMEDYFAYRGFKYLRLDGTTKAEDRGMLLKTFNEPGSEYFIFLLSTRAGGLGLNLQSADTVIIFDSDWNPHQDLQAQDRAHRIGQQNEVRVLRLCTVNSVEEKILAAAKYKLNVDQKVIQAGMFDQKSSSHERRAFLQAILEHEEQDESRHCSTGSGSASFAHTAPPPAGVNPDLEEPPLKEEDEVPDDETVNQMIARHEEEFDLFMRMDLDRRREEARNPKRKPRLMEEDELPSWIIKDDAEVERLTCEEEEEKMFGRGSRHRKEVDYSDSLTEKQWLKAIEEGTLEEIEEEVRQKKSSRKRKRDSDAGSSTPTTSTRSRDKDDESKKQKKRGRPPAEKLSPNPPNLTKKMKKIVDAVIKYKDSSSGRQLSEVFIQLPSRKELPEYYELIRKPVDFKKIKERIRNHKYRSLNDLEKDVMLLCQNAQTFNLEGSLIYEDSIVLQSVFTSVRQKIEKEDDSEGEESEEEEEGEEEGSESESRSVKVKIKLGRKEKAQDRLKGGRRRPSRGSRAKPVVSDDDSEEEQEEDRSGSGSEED
# Sequence of BRM (P51531 whole entry): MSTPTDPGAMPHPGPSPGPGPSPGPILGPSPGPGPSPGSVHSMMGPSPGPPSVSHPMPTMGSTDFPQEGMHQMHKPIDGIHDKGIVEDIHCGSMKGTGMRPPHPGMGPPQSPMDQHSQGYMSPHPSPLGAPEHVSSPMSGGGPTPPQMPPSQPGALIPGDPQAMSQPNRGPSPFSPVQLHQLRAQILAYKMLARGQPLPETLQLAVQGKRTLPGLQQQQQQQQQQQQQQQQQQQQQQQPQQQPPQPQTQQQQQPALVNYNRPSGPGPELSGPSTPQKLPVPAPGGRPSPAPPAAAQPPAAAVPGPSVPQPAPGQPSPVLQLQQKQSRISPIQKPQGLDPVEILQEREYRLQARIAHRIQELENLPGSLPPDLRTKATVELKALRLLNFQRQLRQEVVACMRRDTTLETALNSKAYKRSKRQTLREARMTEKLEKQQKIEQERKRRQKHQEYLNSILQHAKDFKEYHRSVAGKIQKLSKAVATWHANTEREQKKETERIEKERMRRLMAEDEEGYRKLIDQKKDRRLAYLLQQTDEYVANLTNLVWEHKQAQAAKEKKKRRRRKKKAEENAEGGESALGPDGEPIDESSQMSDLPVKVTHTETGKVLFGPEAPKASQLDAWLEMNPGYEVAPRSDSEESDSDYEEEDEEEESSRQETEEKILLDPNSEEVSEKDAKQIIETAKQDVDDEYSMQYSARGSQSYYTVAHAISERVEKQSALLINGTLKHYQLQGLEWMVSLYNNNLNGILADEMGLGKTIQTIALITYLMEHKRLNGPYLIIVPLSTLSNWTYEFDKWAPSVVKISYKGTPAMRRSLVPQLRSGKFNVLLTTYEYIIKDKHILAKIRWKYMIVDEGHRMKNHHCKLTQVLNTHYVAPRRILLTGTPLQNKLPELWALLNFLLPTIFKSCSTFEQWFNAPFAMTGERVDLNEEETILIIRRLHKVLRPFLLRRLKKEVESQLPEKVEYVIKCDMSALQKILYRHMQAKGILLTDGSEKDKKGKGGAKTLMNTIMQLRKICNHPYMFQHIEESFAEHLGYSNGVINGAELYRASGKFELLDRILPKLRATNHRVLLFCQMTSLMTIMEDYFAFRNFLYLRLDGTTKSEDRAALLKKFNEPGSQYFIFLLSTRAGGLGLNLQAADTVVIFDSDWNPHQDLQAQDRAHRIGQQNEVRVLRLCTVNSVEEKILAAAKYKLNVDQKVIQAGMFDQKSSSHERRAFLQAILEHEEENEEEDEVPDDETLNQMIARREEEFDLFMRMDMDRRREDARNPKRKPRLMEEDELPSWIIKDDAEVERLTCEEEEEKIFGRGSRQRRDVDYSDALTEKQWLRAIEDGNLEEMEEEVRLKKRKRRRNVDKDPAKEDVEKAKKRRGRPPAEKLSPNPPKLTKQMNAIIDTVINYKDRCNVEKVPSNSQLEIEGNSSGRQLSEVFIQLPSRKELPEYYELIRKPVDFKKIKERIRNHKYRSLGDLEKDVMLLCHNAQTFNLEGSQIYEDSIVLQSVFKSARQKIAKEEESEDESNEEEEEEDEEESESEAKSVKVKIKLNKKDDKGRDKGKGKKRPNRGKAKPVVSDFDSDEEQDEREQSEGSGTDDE
Compound,IC50 (BRM),BRM Max % Inhibition (BRM; Table 6),IC50 (BRG-1),BRG1 Max % Inhibition (BRG-1; Table 6),"growth inhibition of uveal melanoma cells ([1]; 0 to 10 micromolar, 3 days)",onset of inhibition [1],sensitivity of cell lines to growth inhibition (GI50) [2],BRM Max % Inhibition (BRM; Table 5),BRG1 Max % Inhibition (BRG-1; Table 5)
"CSCC[C@H](NC(=O)c1ccc(N)cc1)C(=O)Nc1nc(-c2cccc(-c3ccncc3)c2)cs1 [Compound 87, (S)-4-amino-N-(4-(methylthio)-1-oxo-1-((4-(3-(pyridin-4-yl)phenyl)thiazol-2-yl)amino)butan-2-yl)benzamide]",,,,,comparable growth inhibition of uveal melanoma cells as the clinical PKC and MEK inhibitors,faster onset of inhibition than the clinical PKC and MEK inhibitors,more sensitive to BRG1/BRM inhibition than the other tested cell lines,,
"CNC(=O)c1ccc(-c2cccc(-c3csc(NC(=O)CNC(=O)c4ccc(N)cc4)n3)c2)cc1 [Compound 130, 3′-(2-(2-(4-aminobenzamido)acetamido)thiazol-4-yl)-N-methyl-[1,1′-biphenyl]-4-carboxamide]",100 to 1000 nM,>70%,1000 to 10000 nM,>70%,,,,,
"CC(=O)NCc1cccc(-c2cccc(-c3csc(NC(=O)CNC(=O)c4ccc(N)cc4)n3)c2)c1 [Compound 124, N-(2-((4-(3′-(acetamidomethyl)-[1,1′-biphenyl]-3-yl)thiazol-2-yl)amino)-2-oxoethyl)-4-aminobenzamide]",100 to 1000 nM,>95%,100 to 1000 nM,>95%,,,,,
"CN(C)S(=O)(=O)c1cccc(C(=O)NCC(=O)Nc2cccc(-c3ccccc3)c2)c1 [Compound 40, 3-(dimethylsulfamoyl)-N-[2-oxo-2-(3-phenylanilino)ethyl]benzamide]",,,,,,,,>50%,<30%
"CC(C)(C)c1cccc(C(=O)NCC(=O)Nc2nc(-c3ccccc3)cs2)c1 [Compound 65, 3-(tert-butyl)-N-(2-oxo-2-((4-phenylthiazol-2-yl)amino)ethyl)benzamide]",1000 to 10000 nM,,1000 to 10000 nM,,,,,>70%,>30%
"CSCC[C@H](NC(=O)c1ccc(N)cc1)C(=O)Nc1nc(-c2cccc(-c3cccc(CN)c3)c2)cs1 [Compound 237, 4-amino-N-[(1S)-1-[[4-[3-[3-(aminomethyl)phenyl]phenyl]thiazol-2-yl]carbamoyl]-3-methylsulfanyl-propyl]benzamide]",100 to 1000 nM,>90%,100 to 1000 nM,>90%,,,,,

# The next lines start with results.
IC50 (BRM),BRM Max % Inhibition (BRM; Table 6),IC50 (BRG-1),BRG1 Max % Inhibition (BRG-1; Table 6),Compound,"growth inhibition of uveal melanoma cells ([1]; 0 to 10 micromolar, 3 days)",onset of inhibition [1],sensitivity of cell lines to growth inhibition (GI50) [2],BRM Max % Inhibition (BRM; Table 5),BRG1 Max % Inhibition (BRG-1; Table 5)
< 100 nM,>95%,< 100 nM,>95%,"CN(C)C(=O)c1cccc(-c2cccc(-c3csc(NC(=O)CNC(=O)c4ccc(N)cc4)n3)c2)c1 [Compound 131, 3′-(2-(2-(4-aminobenzamido)acetamido)thiazol-4-yl)-N,N-dimethyl-[1,1′-biphenyl]-3-carboxamide]",,,,,
< 100 nM,>90%,< 100 nM,>95%,"O=C(CNC(=O)c1ccc2c(c1)CCCN2)Nc1nc(-c2cccc(-c3ccncc3)c2)cs1 [Compound 99, N-(2-oxo-2-((4-(3-(pyridin-4-yl)phenyl)thiazol-2-yl)amino)ethyl)-1,2,3,4-tetrahydroquinoline-6-carboxamide]",,,,,
100 to 1000 nM,>80%,100 to 1000 nM,>50%,"O=C(CNC(=O)c1ccc2c(c1)CC(O)CN2)Nc1nc(-c2cccc(-c3ccncc3)c2)cs1 (centres unmarked) [Compound 105, 3-hydroxy-N-[2-oxo-2-[[4-[3-(4-pyridyl)phenyl]thiazol-2-yl]amino]ethyl]-1,2,3,4-tetrahydroquinoline-6-carboxamide]",,,,,
> 10000 nM,,> 10000 nM,,"O=C(CNC(=O)c1cccc(S(=O)(=O)C2CC2)c1)Nc1nc(-c2ccccc2)cs1 [Compound 39, 3-cyclopropylsulfonyl-N-[2-oxo-2-[(4-phenylthiazol-2-yl)amino]ethyl]benzamide]",,,,>30%,<30%
1000 to 10000 nM,,1000 to 10000 nM,,"CN(C)S(=O)(=O)c1cccc(C(=O)NCC(=O)Nc2nc(-c3ccccc3)cs2)c1 [Compound 13, 3-(dimethylsulfamoyl)-N-[2-oxo-2-[(4-phenylthiazol-2-yl)amino]ethyl]benzamide]",,,,>80%,>30%
